# Measured values published in ChEMBL document CHEMBL1777766, “Design, synthesis and in vitro antibacterial activity of 7-(4-alkoxyimino-3-aminomethylpiperidin-1-yl)fluoroquinolone derivatives” (Bioorg Med Chem Lett, 2011).
# Key:
# Shigella sonnei = assay: Antibacterial activity against Shigella sonnei 51592; type: functional
# Enterobacter cloacae = assay: Antibacterial activity against Enterobacter cloacae 45301; type: functional
# Serratia marcescens = assay: Antibacterial activity against Serratia marcescens 41002; type: functional
# [1] = Cytotoxicity against african green monkey Vero cells after 24 hrs; type: cell-based; conditions: chlorocebus sabaeus
# Staphylococcus aureus [2] = assay: Antibacterial activity against methicillin-sensitive Staphylococcus aureus 08-49; type: functional
# Proteus vulgaris = assay: Antibacterial activity against Proteus vulgaris 56; type: functional
# Pseudomonas aeruginosa [3] = assay: Antibacterial activity against Pseudomonas aeruginosa 17; type: functional
# Staphylococcus aureus [4] = assay: Antibacterial activity against methicillin-resistant Staphylococcus aureus 08-52; type: functional
# Enterococcus faecalis [5] = assay: Antibacterial activity against Enterococcus faecalis ATCC 51299; type: functional
# Morganella morganii = assay: Antibacterial activity against Morganella morganii 49086; type: functional
# [6] = test system: Staphylococcus epidermidis; assay: Antibacterial activity against Staphylococcus epidermidis ATCC 12228; type: functional
# [7] = test system: Acinetobacter calcoaceticus; assay: Antibacterial activity against Acinetobacter calcoaceticus 25001; type: functional
# Staphylococcus aureus [8] = assay: Antibacterial activity against Staphylococcus aureus ATCC 13709; type: functional
# Salmonella typhi = assay: Antibacterial activity against Bacillus typhi 50035; type: functional, Salmonella enterica subsp. enterica serovar Typhi; conditions: Salmonella enterica
# Escherichia coli [9] = assay: Antibacterial activity against Extended spectrum beta-lactamase producing Escherichia coli 08-5; type: functional
# Escherichia coli [10] = assay: Antibacterial activity against Escherichia coli ATCC 25922; type: functional
# Providencia rettgeri = assay: Antibacterial activity against Proteus rettgeri 49006; type: functional
# Streptococcus pneumoniae [11] = assay: Antibacterial activity against penicillin-resistant Streptococcus pneumoniae 08-2; type: functional
# Enterococcus faecalis [12] = assay: Antibacterial activity against vancomycin-resistant Enterococcus faecalis EFL1004; type: functional
# [13] = test system: Staphylococcus epidermidis; assay: Antibacterial activity against methicillin-sensitive Staphylococcus epidermidis 08-17; type: functional
# Klebsiella pneumoniae = assay: Antibacterial activity against Klebsiella pneumoniae ATCC 700603; type: functional
# Streptococcus pneumoniae [14] = assay: Antibacterial activity against Streptococcus pneumoniae ATCC 6301; type: functional
# Klebsiella aerogenes = assay: Antibacterial activity against Enterobacter aerogenes 45102; type: functional
# Streptococcus pyogenes = assay: Antibacterial activity against Streptococcus pyogenes 556; type: functional
# [15] = test system: Staphylococcus epidermidis; assay: Antibacterial activity against methicillin-resistant Staphylococcus epidermidis 08-18; type: functional
# Pseudomonas aeruginosa [16] = assay: Ratio of MIC for compound to MIC for GMFX against Pseudomonas aeruginosa 17; type: functional
# Pseudomonas aeruginosa [17] = assay: Ratio of MIC for compound to MIC for LVFX against Pseudomonas aeruginosa 17; type: functional
# Pseudomonas aeruginosa [18] = assay: Ratio of MIC for compound to MIC for CPFX against Pseudomonas aeruginosa 17; type: functional
SMILES,MIC (Shigella sonnei),MIC (Enterobacter cloacae),MIC (Serratia marcescens),CC50 at 24 h [1],MIC (Staphylococcus aureus [2]),MIC (Proteus vulgaris),MIC (Pseudomonas aeruginosa [3]),MIC (Staphylococcus aureus [4]),MIC (Enterococcus faecalis [5]),MIC (Morganella morganii),MIC [6],MIC [7],MIC (Staphylococcus aureus [8]),MIC (Salmonella typhi),MIC (Escherichia coli [9]),MIC (Escherichia coli [10]),MIC (Providencia rettgeri),MIC (Streptococcus pneumoniae [11]),MIC (Enterococcus faecalis [12]),MIC [13],other results
CCO/N=C1\CCN(c2c(F)cc3c(=O)c(C(=O)O)cn(C4CC4)c3c2OC(F)F)CC1CN (racemic),2 µg/mL,8 µg/mL,32 µg/mL,203 µg/mL,0.25 µg/mL,8 µg/mL,16 µg/mL,2 µg/mL,2 µg/mL,8 µg/mL,2 µg/mL,4 µg/mL,1 µg/mL,2 µg/mL,> 128 µg/mL,4 µg/mL,16 µg/mL,4 µg/mL,4 µg/mL,4 µg/mL,MIC (Klebsiella pneumoniae): 64 µg/mL; MIC (Streptococcus pneumoniae [14]): 8 µg/mL; MIC (Klebsiella aerogenes): 8 µg/mL; MIC (Streptococcus pyogenes): 16 µg/mL; MIC [15]: 2 µg/mL
CCn1cc(C(=O)O)c(=O)c2cc(F)c(N3CC/C(=N\OC)C(CN)C3)c(F)c21 (racemic),4 µg/mL,> 128 µg/mL,8 µg/mL,> 500 µg/mL,4 µg/mL,8 µg/mL,32 µg/mL,8 µg/mL,8 µg/mL,4 µg/mL,8 µg/mL,16 µg/mL,2 µg/mL,4 µg/mL,> 128 µg/mL,4 µg/mL,8 µg/mL,16 µg/mL,32 µg/mL,16 µg/mL,MIC (Klebsiella pneumoniae): 128 µg/mL; MIC (Streptococcus pneumoniae [14]): 32 µg/mL; MIC (Klebsiella aerogenes): 8 µg/mL; MIC (Streptococcus pyogenes): 64 µg/mL; MIC [15]: 4 µg/mL
CCO/N=C1\CCN(c2c(F)cc3c(=O)c(C(=O)O)cn(CC)c3c2F)CC1CN (racemic),128 µg/mL,> 128 µg/mL,16 µg/mL,410 µg/mL,4 µg/mL,16 µg/mL,128 µg/mL,8 µg/mL,16 µg/mL,16 µg/mL,8 µg/mL,128 µg/mL,4 µg/mL,8 µg/mL,> 128 µg/mL,8 µg/mL,32 µg/mL,32 µg/mL,32 µg/mL,32 µg/mL,MIC (Klebsiella pneumoniae): > 128 µg/mL; MIC (Streptococcus pneumoniae [14]): 64 µg/mL; MIC (Klebsiella aerogenes): 16 µg/mL; MIC (Streptococcus pyogenes): 64 µg/mL; MIC [15]: 8 µg/mL
CCO/N=C1\CCN(c2c(F)cc3c(=O)c(C(=O)O)cn(CCF)c3c2F)CC1CN (racemic),8 µg/mL,16 µg/mL,16 µg/mL,> 500 µg/mL,8 µg/mL,16 µg/mL,64 µg/mL,16 µg/mL,16 µg/mL,8 µg/mL,16 µg/mL,128 µg/mL,8 µg/mL,8 µg/mL,> 128 µg/mL,8 µg/mL,32 µg/mL,32 µg/mL,64 µg/mL,64 µg/mL,MIC (Klebsiella pneumoniae): > 128 µg/mL; MIC (Streptococcus pneumoniae [14]): 64 µg/mL; MIC (Klebsiella aerogenes): 16 µg/mL; MIC (Streptococcus pyogenes): 64 µg/mL; MIC [15]: 8 µg/mL
CO/N=C1\CCN(c2nc3c(cc2F)c(=O)c(C(=O)O)cn3-c2ccc(F)cc2F)CC1CN (racemic),2 µg/mL,2 µg/mL,8 µg/mL,96 µg/mL,0.25 µg/mL,8 µg/mL,4 µg/mL,2 µg/mL,2 µg/mL,4 µg/mL,0.5 µg/mL,4 µg/mL,0.5 µg/mL,2 µg/mL,> 128 µg/mL,1 µg/mL,8 µg/mL,0.5 µg/mL,4 µg/mL,2 µg/mL,Ratio (Pseudomonas aeruginosa [16]): 2; MIC (Klebsiella pneumoniae): 32 µg/mL; Ratio (Pseudomonas aeruginosa [17]): 2; MIC (Streptococcus pneumoniae [14]): 1 µg/mL; MIC (Klebsiella aerogenes): 2 µg/mL; MIC (Streptococcus pyogenes): 1 µg/mL; Ratio (Pseudomonas aeruginosa [18]): 2; MIC [15]: 0.5 µg/mL
CCO/N=C1\CCN(c2nc3c(cc2F)c(=O)c(C(=O)O)cn3-c2ccc(F)cc2F)CC1CN (racemic),2 µg/mL,2 µg/mL,16 µg/mL,72.6 µg/mL,0.25 µg/mL,4 µg/mL,4 µg/mL,1 µg/mL,1 µg/mL,4 µg/mL,0.25 µg/mL,4 µg/mL,0.25 µg/mL,2 µg/mL,> 128 µg/mL,2 µg/mL,8 µg/mL,0.5 µg/mL,4 µg/mL,1 µg/mL,Ratio (Pseudomonas aeruginosa [16]): 2; MIC (Klebsiella pneumoniae): 32 µg/mL; Ratio (Pseudomonas aeruginosa [17]): 2; MIC (Streptococcus pneumoniae [14]): 2 µg/mL; MIC (Klebsiella aerogenes): 2 µg/mL; MIC (Streptococcus pyogenes): 4 µg/mL; Ratio (Pseudomonas aeruginosa [18]): 2; MIC [15]: 0.25 µg/mL
CO/N=C1\CCN(c2c(F)cc3c(=O)c(C(=O)O)cn(C4CC4)c3c2OC)CC1CN (racemic),4 µg/mL,> 128 µg/mL,8 µg/mL,395 µg/mL,0.25 µg/mL,8 µg/mL,8 µg/mL,4 µg/mL,4 µg/mL,4 µg/mL,1 µg/mL,4 µg/mL,0.5 µg/mL,4 µg/mL,> 128 µg/mL,4 µg/mL,8 µg/mL,4 µg/mL,8 µg/mL,4 µg/mL,MIC (Klebsiella pneumoniae): 64 µg/mL; MIC (Streptococcus pneumoniae [14]): 4 µg/mL; MIC (Klebsiella aerogenes): 4 µg/mL; MIC (Streptococcus pyogenes): 8 µg/mL; MIC [15]: 4 µg/mL
CCO/N=C1\CCN(c2c(F)cc3c(=O)c(C(=O)O)cn(C4CC4)c3c2OC)CC1CN (racemic),8 µg/mL,> 128 µg/mL,32 µg/mL,173 µg/mL,0.25 µg/mL,32 µg/mL,32 µg/mL,2 µg/mL,4 µg/mL,16 µg/mL,2 µg/mL,8 µg/mL,1 µg/mL,4 µg/mL,> 128 µg/mL,4 µg/mL,32 µg/mL,4 µg/mL,8 µg/mL,4 µg/mL,MIC (Klebsiella pneumoniae): 128 µg/mL; MIC (Streptococcus pneumoniae [14]): 8 µg/mL; MIC (Klebsiella aerogenes): 16 µg/mL; MIC (Streptococcus pyogenes): 8 µg/mL; MIC [15]: 2 µg/mL
